≈ marks a conversion by molar mass, not a printed value. Where two headings read alike, the source gives them in different places.
Experiments:
[1] = tested on: M. suipneumoniae Str. 11; experiment: MIC against mycoplasma in vitro; assay type: cell-based; details: Mesomycoplasma hyopneumoniae
[2] = tested on: M. suipneumoniae J2206/183^b; experiment: MIC against mycoplasma in vitro; assay type: cell-based; details: Mesomycoplasma hyopneumoniae, 144 h
[3] = tested on: M. suipneumoniae LABER; experiment: MIC against mycoplasma in vitro; assay type: cell-based; details: Mesomycoplasma hyopneumoniae, 144 h
[4] = tested on: M. hyorhinis ATCC 25021; experiment: MIC against mycoplasma in vitro; assay type: cell-based; details: Mesomycoplasma hyorhinis, ATCC25021, 144 h
[5] = tested on: M. hyosynoviae ATCC 25591; experiment: MIC against mycoplasma in vitro; assay type: cell-based; details: 144 h
[6] = tested on: M. bovis NCTC 10131; experiment: microbe, parasite or virus in culture; assay type: cell-based; details: NCTC10131, 144 h
[7] = tested on: M. dispar NCTC 10125; experiment: MIC against mycoplasma in vitro; assay type: cell-based; details: 144 h
[8] = tested on: E. coli NCTC 10418; experiment: MIC against human bacteria in vitro; assay type: cell-based; details: Escherichia coli, NCTC10418; E. coli NCTC 10418; agar with 5% chocolated horse blood, 18 hours, 37° C.; read-out: MIC
[9] = tested on: P. mirabilis 889; experiment: MIC against human bacteria in vitro; assay type: cell-based; details: Proteus mirabilis; P. mirabilis 889; 5% chocolated horse blood agar, 18 hours; read-out: MIC
[10] = tested on: K. aerogenes A; experiment: MIC against human bacteria in vitro; assay type: cell-based; details: Klebsiella aerogenes; K. aerogenes A; 5% chocolated horse blood agar, 18 hours; read-out: MIC
[11] = tested on: Neisseria catarrhalis 1502; experiment: MIC against human bacteria in vitro; assay type: cell-based; details: Neisseria catarrhalis 1502; 5% chocolated horse blood agar, 18 hours; read-out: MIC
[12] = tested on: Bacillus subtilis 6633; experiment: MIC against human bacteria in vitro; assay type: cell-based; details: Bacillus subtilis 6633; 5% chocolated horse blood agar, 18 hours; read-out: MIC
[13] = tested on: Corynebacterium xerosis 9755; experiment: MIC against human bacteria in vitro; assay type: cell-based; details: Corynebacterium xerosis 9755; 5% chocolated horse blood agar, 18 hours; read-out: MIC
[14] = tested on: Staph. aureus Oxford; experiment: MIC against human bacteria in vitro; assay type: cell-based; details: Staphylococcus aureus; Staph. aureus Oxford; 5% chocolated horse blood agar, 18 hours; read-out: MIC
[15] = tested on: Strep. faecalis I; experiment: MIC against human bacteria in vitro; assay type: cell-based; details: Enterococcus faecalis; Strep. faecalis I; 5% chocolated horse blood agar, 18 hours; read-out: MIC
[16] = tested on: Strep. pyogenes R80/421-A; experiment: MIC against human bacteria in vitro; assay type: cell-based; details: Streptococcus pyogenes; Strep. pyogenes R80/421-A; 5% chocolated horse blood agar, 18 hours; read-out: MIC
[17] = tested on: Past. multocida PA1; experiment: MIC against veterinary bacteria in vitro; details: Pasteurella multocida, PA1, 18 h
Protocol: (§1) The activity of the compounds of the Examples against various veterinarily important bacteria, was assayed in vitro using two-fold serial dilutions in Diagnostic Sensitivity Test Agar inoculated with 10^4 organisms.

[18] = tested on: Past. haemolytica PA5; experiment: MIC against veterinary bacteria in vitro; details: Mannheimia haemolytica, PA5, 18 h
Protocol: as §1

[19] = tested on: Corynebacterium pyogenes CY1; experiment: MIC against veterinary bacteria in vitro; details: CY1, 18 h
Protocol: as §1

[20] = tested on: Staph. aureus B4 (pen. resistant); experiment: MIC against veterinary bacteria in vitro; details: Staphylococcus aureus, 18 h
Protocol: as §1

[21] = tested on: Strep. uberis SPU1; experiment: MIC against veterinary bacteria in vitro; details: Streptococcus uberis, SPU1, 18 h
Protocol: as §1

[22] = tested on: Strep. dysgalactiae SPD1; experiment: MIC against veterinary bacteria in vitro; details: Streptococcus dysgalactiae, SPD1, 18 h
Protocol: as §1

[23] = tested on: M. suipneumoniae PW/C/210; experiment: MIC against mycoplasma in vitro; assay type: cell-based; details: Mesomycoplasma hyopneumoniae, 144 h
[24] = M. dispar NCTC 10125, 6 days, 37° C., read-out: MIC
[25] = M. suipneumoniae J2206/183^b, 6 days, 37° C., read-out: MIC
[26] = M. hyosynoviae ATCC 25591, 6 days, 37° C., read-out: MIC

Row | Compound | MIC ([1]; STR.11, 144 h) | MIC [3] | MIC [4] | MIC [6] | MIC [7, 24] | MIC [8] | MIC [9] | MIC [10] | MIC [11] | MIC [12] | MIC [13] | MIC [14] | MIC [15] | MIC [16] | MIC [18] | MIC [19] | MIC [20] | MIC [21] | MIC [22] | MIC [5, 26] | also measured
1 | C/C(=C\c1cc(C)on1)C[C@@H]1OC[C@H](C[C@@H]2O[C@H]2[C@@H](C)[C@H](C)O)[C@@H](O)[C@H]1O [Example 33, 5-Methyl-3-(1-normon-2-yl) isoxazole A] | 1 µg/mL (≈ 2.62 µM) | 2.5 µg/mL (≈ 6.55 µM) | 1 µg/mL (≈ 2.62 µM) | 0.25 µg/mL (≈ 0.655 µM) | 0.5 µg/mL (≈ 1.31 µM) | > 128 µg/mL | > 128 µg/mL | > 128 µg/mL | 4 µg/mL (≈ 10.5 µM) | 1 µg/mL (≈ 2.62 µM) | > 128 µg/mL | 8 µg/mL (≈ 21 µM) | > 128 µg/mL | 8 µg/mL (≈ 21 µM) | 20 µg/mL (≈ 52.4 µM) | > 80 µg/mL | 1.3 µg/mL (≈ 3.41 µM) | 5 µg/mL (≈ 13.1 µM) | 5 µg/mL (≈ 13.1 µM) | – | MIC [2]: 1 µg/mL (≈ 2.62 µM); MIC [5]: 2.5 µg/mL (≈ 6.55 µM); MIC [17]: 1.3 µg/mL (≈ 3.41 µM)
2 | C/C(=C\c1cc(-c2ccccc2)no1)C[C@@H]1OC[C@H](C[C@@H]2O[C@H]2[C@@H](C)[C@H](C)O)[C@@H](O)[C@H]1O [Example 31, 5-(1-Normon-2-yl)-3-phenylisoxazole A] | – | – | – | 1 µg/mL (≈ 2.25 µM) | – | > 128 µg/mL | > 128 µg/mL | > 128 µg/mL | 8 µg/mL (≈ 18 µM) | 64 µg/mL (≈ 144 µM) | > 128 µg/mL | 64 µg/mL (≈ 144 µM) | > 128 µg/mL | 128 µg/mL (≈ 289 µM) | > 80 µg/mL | > 80 µg/mL | 10 µg/mL (≈ 22.5 µM) | 40 µg/mL (≈ 90.2 µM) | > 80 µg/mL | 10 µg/mL (≈ 22.5 µM) | MIC ([1]; 144 h, M. suipneumoniae Str. 11, 6 days, 37° C., read-out: MIC): 5 µg/mL (≈ 11.3 µM); MIC [2, 25]: 10 µg/mL (≈ 22.5 µM); MIC ([3]; M. suipneumoniae LABER, 6 days, 37° C., read-out: MIC): 10 µg/mL (≈ 22.5 µM); MIC ([4]; M. hyorhinis ATCC 25021, 6 days, 37° C., read-out: MIC): 5 µg/mL (≈ 11.3 µM); MIC [7]: 2.5 µg/mL (≈ 5.64 µM)
3 | C/C(=C\c1cc(-c2ccccc2)on1)C[C@@H]1OC[C@H](C[C@@H]2O[C@H]2[C@@H](C)[C@H](C)O)[C@@H](O)[C@H]1O [Example 34, 3-(1-Normon-2-yl)-5-phenylisoxazole A] | 1 µg/mL (≈ 2.25 µM) | 1 µg/mL (≈ 2.25 µM) | 1 µg/mL (≈ 2.25 µM) | 0.25 µg/mL (≈ 0.564 µM) | 0.5 µg/mL (≈ 1.13 µM) | > 128 µg/mL | > 128 µg/mL | > 128 µg/mL | 4 µg/mL (≈ 9.02 µM) | 4 µg/mL (≈ 9.02 µM) | > 128 µg/mL | 8 µg/mL (≈ 18 µM) | > 128 µg/mL | 8 µg/mL (≈ 18 µM) | > 80 µg/mL | > 80 µg/mL | 2.5 µg/mL (≈ 5.64 µM) | 5 µg/mL (≈ 11.3 µM) | 10 µg/mL (≈ 22.5 µM) | 5 µg/mL (≈ 11.3 µM) | MIC [2]: 2.5 µg/mL (≈ 5.64 µM)
4 | C/C(=C\c1ncc(CCCCCCCCO)o1)C[C@@H]1OC[C@H](C[C@@H]2O[C@H]2[C@@H](C)[C@H](C)O)[C@@H](O)[C@H]1O [Example 19, 5-(8-Hydroxyoctyl)-2-(1-normon-2-yl) oxazole A] | 1 µg/mL (≈ 2.02 µM) | 1 µg/mL (≈ 2.02 µM) | 1 µg/mL (≈ 2.02 µM) | 0.025 µg/mL (≈ 0.0504 µM) | 0.5 µg/mL (≈ 1.01 µM) | > 128 µg/mL | > 128 µg/mL | > 128 µg/mL | – | 4 µg/mL (≈ 8.07 µM) | 128 µg/mL (≈ 258 µM) | 4 µg/mL (≈ 8.07 µM) | > 128 µg/mL | 2 µg/mL (≈ 4.04 µM) | > 80 µg/mL | > 80 µg/mL | 1.25 µg/mL (≈ 2.52 µM) | 0.625 µg/mL (≈ 1.26 µM) | 2.5 µg/mL (≈ 5.04 µM) | 0.5 µg/mL (≈ 1.01 µM) | MIC [2, 25]: 5 µg/mL (≈ 10.1 µM); MIC [23]: 0.25 µg/mL (≈ 0.504 µM)
